# Laboratory results from patent publication US9982256B2, “Random RNAi libraries, methods of generating same, and screening methods utilizing same” (The Trustees of the University of Pennsylvania, priority 2006, dated 2018).
# Columns and labels:
# FL5.12 cells [1] = experiment: Survival of shRNA-infected FL5.12 cells after IL-3 withdrawal (flow cytometry, GFP/PI); type: cell-based, murine; conditions: 15 hours into second IL-3 withdrawal, after 1 round of withdrawal and recovery; 6 independent infections; p<0.0001, Student's t-test
# Protocol: High-titer retrovirus was generated by co-transfecting 293T cells with retroviral vector and pCL-Eco, which encodes both ecotropic envelope and gag-pol proteins, using an Effectene® transfection kit (Qiagen). Culture supernatant was harvested each day from 24-72 hours after transfection and used either to infect FL5.12 cells or frozen at ^−80° C. for future use. 1-2 million cells were seeded in each well of a 24-well plate and were centrifuged at 2500×g for 1 hour with viral supernatant, 5 μg/ml polybrene, and 0.3 ng/ml interleukin-3 (IL-3). Cells were stored in the incubator for 2 hours. Viral supernatant was replaced with fresh batches, and the spin/incubation process was repeated 2 more times. Infection efficiency was determined 24-48 hours later by flow cytometric analysis of GFP expression.
# The murine pro-B cell line FL5.12 is IL-3 dependent; 100% of the cells die by apoptosis after IL-3 withdrawal for 3 days, and >90% of cells can be rescued by expression of Bcl-xL59. […]
# 10 shRNA-encoding sequences (“books”) were retrieved by PCR, cloned back into pSiren, and sequenced. […] After 15 hours, cells were analyzed by flow cytometry, identifying infected cells by GFP fluorescence and dead cells by propidium iodide (PI) staining. […]
# caspase 3 = experiment: Caspase 3 enzymatic activity in book-infected FL5.12 cells; type: cell-based, murine; conditions: correlated with the improved survival after IL-3 withdrawal
# Protocol: (§1) 10 shRNA-encoding sequences (“books”) were retrieved by PCR, cloned back into pSiren, and sequenced. Of the 10, two were the same (books 1 and 7), indicating selective enrichment. FL5.12 cells were infected with 3 of the putative shRNA molecules separately (books 1, 3, and 8), each one assayed in 6 independent infections. The cells were subjected to 1 round of IL-3 withdrawal and recovery and subjected to a second withdrawal from IL-3. After 15 hours, cells were analyzed by flow cytometry, identifying infected cells by GFP fluorescence and dead cells by propidium iodide (PI) staining. Fractions of GFP-positive (infected), PI-negative (live) cells relative to the start of the experiment (just prior to the first IL-3 withdrawal) are depicted in FIG. 16. […] The improved survival with books 1 and 3 correlated with a decrease in caspase 3 enzymatic activity. Because the cycling of IL-3 withdrawal included a recovery segment, books 1 and 3 were tested for effects on growth rate and none were seen. The stem sequences of books 1 and 3 are as follows: […]
# FL5.12 cells [2] = experiment: Growth rate of book-infected FL5.12 cells; type: cell-based, murine
# Protocol: as §1
# 293T cells = experiment: Overnight CDDO treatment of 293T cells, to establish an apoptosis assay; type: cell-based, human; conditions: for adherent cells remaining after treatment: then medium without CDDO
# Protocol: 293T cells (a human, embryonic kidney cell line) were treated overnight (16 hours) with 2, 4, 6, and 8 μM of the synthetic triterpenoid, CDDO.
# primary FRDA fibroblasts [3] = experiment: Glutathione depletion with BSO: viability of primary FRDA fibroblasts; type: cell-based; conditions: 1 mM BSO in media with 0.3 mg/ml fully saturated human transferrin; 48 hours; 6-well plate
# Protocol: (§2) Primary FRDA fibroblasts are far more sensitive to oxidative stress than normal control fibroblasts. (Jauslin et al. (Hum Molec Gen 11: 3055, 2002) used L-buthionine (S,R)-sulfoximine (BSO) to block the rate-limiting enzyme in glutathione synthesis, and found a concentration (0.05 mM) at which virtually all primary FRDA fibroblasts lose viability, but more than 90% of normal control fibroblasts retain viability.)
# (§3) […] […] By washing the cells, adding back their normal medium, and looking for colony formation, the minimum conditions under which 100% of the cells die were confirmed.
# [4] = tested on: normal control fibroblasts; experiment: Glutathione depletion with BSO: viability of normal control fibroblasts; type: cell-based; conditions: 1 mM BSO in media with 0.3 mg/ml fully saturated human transferrin; 48 hours
# Protocol: as §2, §3
# primary FRDA fibroblasts [5] = conditions: 0.05 mM BSO; Jauslin et al. 2002; cited from earlier work
# [6] = tested on: normal control fibroblasts; conditions: 0.05 mM BSO; Jauslin et al. 2002; cited from earlier work
molecule,measurement,setting,value
"5′-GGGTAGCTACATTTGCATATGTGGATATG-3′ (listed as DNA, chemistry not given here) [Book 1, books 1 and 7 were the same]","survival (GFP-positive, PI-negative cells) relative to random book (ctr153) or vector alone (pSiren)",FL5.12 cells [1],statistically significant improvement in survival
same,caspase 3 enzymatic activity,caspase 3,decrease
same,effects on growth rate,FL5.12 cells [2],none
CC1(C)CC[C@]2(C(=O)O)CC[C@]3(C)[C@H](C(=O)C=C4[C@@]5(C)C=C(C#N)C(=O)C(C)(C)[C@@H]5CC[C@]43C)[C@@H]2C1 [CDDO],adherent cells remaining after treatment,293T cells; 2 μM CDDO overnight (16 hours),some adherent cells
same,adherent cells remaining after treatment,293T cells; 4 μM CDDO overnight (16 hours),no remaining adherent cells
same,adherent cells remaining after treatment,293T cells; 6 μM CDDO overnight (16 hours),no remaining adherent cells
same,adherent cells remaining after treatment,293T cells; 8 μM CDDO overnight (16 hours),no remaining adherent cells
same,adherent colonies after post-treatment culture,"293T cells; repeat with 4 μM CDDO, five days of post-treatment culture in medium without CDDO",no adherent colonies were evident
"CCCCS(=N)(=O)CCC(N)C(=O)O [BSO, L-buthionine (S,R)-sulfoximine]",viability of FRDA cells,primary FRDA fibroblasts [3],all the cells in a 6-well plate nonviable
same,age- and passage-matched controls remaining viable,[4],majority
same,primary FRDA fibroblasts losing viability,primary FRDA fibroblasts [5],virtually all
same,normal control fibroblasts retaining viability,[6],more than 90%
"5′-GTGGATCAGTGTGTTATAGCTCGGGCAGG-3′ (listed as DNA, chemistry not given here) [Book 3]","survival (GFP-positive, PI-negative cells) relative to random book (ctr153) or vector alone (pSiren)",FL5.12 cells [1],statistically significant improvement in survival
same,caspase 3 enzymatic activity,caspase 3,decrease
same,effects on growth rate,FL5.12 cells [2],none
